Assay results reported in EP0354453A2, “Antimicrobial agent for animals” (priority 1988, dated 1990).
Converted amounts (≈) assume the structure as drawn.

Experiments:
[1] = test system: Bordetella bronchiaseptica AR3; assay: in vitro antimicrobial activity (MIC), agar dilution, Part 1; format: cell-based; details: Bordetella bronchiaseptica AR3, Pig; Mueller Hinton agar, 37°C, 18-24 hours
Description: (§1) Test microorganisms listed in Table 2 were cultured overnight in heart infusion nutrient broth (produced by Eiken Chemical Co., Ltd.). Culture broth containing about 10⁸/ml cells was diluted to a volume of 100 times. An aliquot (about 0.05 ml) of the diluted broth was inoculated onto a Mueller Hinton agar plate (produced by Eiken Chemical Co., Ltd.) to which Compound No. 1 was added in a prescribed concentration. […]

Escherichia coli 15-4 = assay: as above; format: cell-based; details: 154; Escherichia coli 15-4, Cow; Mueller Hinton agar, 37°C, 18-24 hours
Description: as §1

Escherichia coli 164 = assay: as above; format: cell-based; details: Escherichia coli 164, Pig; Mueller Hinton agar, 37°C, 18-24 hours
Description: as §1

Escherichia coli 442 = assay: as above; format: cell-based; details: Escherichia coli 442, Chicken; Mueller Hinton agar, 37°C, 18-24 hours
Description: as §1

[2] = test system: Salmonella typhimurium 101; assay: as above; format: cell-based; details: Salmonella enterica; Salmonella typhimurium 101, Chicken; Mueller Hinton agar, 37°C, 18-24 hours
Description: as §1

[3] = test system: Salmonella typhimurium 595; assay: as above; format: cell-based; details: Salmonella enterica; Salmonella typhimurium 595, Pig; Mueller Hinton agar, 37°C, 18-24 hours
Description: as §1

[4] = test system: Staphylococcus aureus Aichi 2; assay: as above; format: cell-based; details: AICHI2; Staphylococcus aureus Aichi 2, Chicken; Mueller Hinton agar, 37°C, 18-24 hours
Description: as §1

Escherichia coli = assay: Effect of oral administration on chicken inoculated with Escherichia coli; format: in vivo; details: for Chickens developing disease in air sac (naked eye observation) / No. of dead chickens: 5 tested chickens
Description: Escherichia coli cells collected from infected chicken were cultured overnight in a trypticase soy broth (BBL). 0.2 ml of this culture broth was injected into the trachea of chickens of average body weight of 80 g using a 1 ml disposable injection needle. Beginning 2 hours after the inoculation, feeds to which Compound (1) had been added in the amount of 50 ppm, 25 ppm, or 12.5 ppm were freely given to the chickens for 5 days. Following the administration of Compound (1) the chickens were given feed with no addition of drug for 5 days. The surviving chickens were sacrificed and dissected. After examination of the degree of disease in the air sac, Escherichia coli in the trachea, lung, and air sac were quantitatively determined. […]

Mycoplasma gallisepticum = assay: Effect of oral administration on chicken inoculated with Mycoplasma gallisepticum; format: in vivo; details: for Chickens developing disease in air sac (naked eye observation) / No. of dead chickens: 5 tested chickens
Description: Mycoplasma gallisepticum cells collected from chickens having respiratory Mycoplasma infection were cultured for 3 days in a Frey liquid media for Mycoplasma. 0.2 ml of this culture broth was injected into the trachea of chickens of an average body weight of 80 g using a 1 ml disposable injection needle. Beginning from the next day following the inoculation, feeds to which Compound (1) had been added in the amount of 100 ppm, 75 ppm, or 50 ppm were freely given to the chickens for 5 days. Following the administration of Compound (1) the chickens were given feed containing no drug for a further 5 days. The surviving chickens were sacrificed and dissected. After examination of the degree of disease in the air sac, Mycoplasma gallisepticum in the infraorbital sinus, trachea, lung, and air sac were determined. […] TABLE 6 […]

[5] = test system: Bordetella bronchiaseptica OKM-1; assay: in vitro antimicrobial activity (MIC), agar dilution, Part 2; format: cell-based; details: Bordetella, OKM1, Bordetella bronchiaseptica OKM-1, Pig; read-out: MIC
Description: as §1
(§2) MIC of Compounds (1)-(8) against various pathogenic bacteria derived from animals was determined in the same manner as in Example 1.

Escherichia coli 139 = assay: as above; format: cell-based; details: Escherichia coli 139, Cow; read-out: MIC
Description: as §1, §2

Escherichia coli 881 = assay: as above; format: cell-based; details: Escherichia coli, 881, Escherichia coli 881, Pig; read-out: MIC
Description: as §1, §2

Escherichia coli S6W = assay: as above; format: cell-based; details: Escherichia coli, S6W, Escherichia coli S6W, Chicken; read-out: MIC
Description: as §1, §2

[6] = test system: Pasteurella multocida DB-12-1; assay: as above; format: cell-based; details: DB121; Pasteurella multocida DB-12-1, Pig; read-out: MIC
Description: as §1, §2

[7] = test system: Salmonella typhimurium 103; assay: as above; format: cell-based; details: Salmonella enterica; Salmonella typhimurium 103, Chicken; read-out: MIC
Description: as §1, §2

[8] = test system: Salmonella typhimurium 569; assay: as above; format: cell-based; details: Salmonella enterica, TYPHIMURIUM, Salmonella typhimurium 569, Pig; read-out: MIC
Description: as §1, §2

[9] = test system: Staphylococcus aureus Yamaguchi 6; assay: as above; format: cell-based; details: Staphylococcus aureus Yamaguchi 6, Chicken; read-out: MIC
Description: as §1, §2

[10] = test system: Mycoplasma gallisepticum Strain 2004; assay: in vitro antimicrobial activity (MIC) in Frey liquid medium; format: cell-based; details: Mycoplasmoides gallisepticum, STRAIN2004; Mycoplasma gallisepticum Strain 2004, from chicken; Frey liquid medium, 37°C, 3-5 days; read-out: MIC
Description: (§3) Various test strains of Mycoplasma gallisepticum derived from chicken were cultured in a Frey liquid medium for Mycoplasma for 3 days. The culture broth containing about 10⁸/ml cells was diluted to a volume of 100 times. The diluted broth was inoculated into Frey liquid media for Mycoplasma to which the compounds of this invention were added at prescribed concentrations. The cells were incubated at 37°C for 3-5 days while daily observing the color of the media. Among the culture broths maintaining yellow color at the time when the control to which no test compound was added turned red, the concentration of the broth having the minimum concentration was taken as the MIC of the compound.

[11] = test system: Mycoplasma gallisepticum Strain 2012; assay: as above; format: cell-based; details: Mycoplasmoides gallisepticum, STRAIN2012; Mycoplasma gallisepticum Strain 2012, from chicken; Frey liquid medium, 37°C, 3-5 days; read-out: MIC
Description: as §3

[12] = test system: Mycoplasma gallisepticum Strain DP-1047; assay: as above; format: cell-based; details: Mycoplasmoides gallisepticum; Mycoplasma gallisepticum Strain DP-1047, from chicken; Frey liquid medium, 37°C, 3-5 days; read-out: MIC
Description: as §3

[13] = test system: Mycoplasma gallisepticum Strain T-2; assay: as above; format: cell-based; details: Mycoplasmoides gallisepticum; Mycoplasma gallisepticum Strain T-2, from chicken; Frey liquid medium, 37°C, 3-5 days; read-out: MIC
Description: as §3

[14] = test system: Mycoplasma gallisepticum Strain T-7; assay: as above; format: cell-based; details: Mycoplasmoides gallisepticum, Mycoplasma gallisepticum Strain T-7, from chicken, 37°C, 3-5 days
Description: as §3

[15] = Acute toxicity test, intravenous injection; format: in vivo
Description: Representative test compounds, Compounds (2) and (3), were intravenously injected to mice. No fatality occurred at a dose of 200 mg/kg (10 mice/group), for Compound (2), and a dose of 200 mg/kg (6 mice/group), for Compound (3). From the results, the LD₅₀ values of the compounds are considered to be greater than 200 mg/kg.

## CC1COc2c(N3CCN(C)CC3)c(F)cc3c(=O)c(C(=O)O)cn1c23 (racemic) [Ofloxacin, reference compound]
[1]
  MIC: 0.39 µg/mL (≈ 1.08 µM)
Escherichia coli 15-4
  MIC: 0.1 µg/mL (≈ 0.277 µM)
Escherichia coli 164
  MIC: 0.1 µg/mL (≈ 0.277 µM)
Escherichia coli 442
  MIC: 0.05 µg/mL (≈ 0.138 µM)
[2]
  MIC: 0.05 µg/mL (≈ 0.138 µM)
[3]
  MIC: 0.1 µg/mL (≈ 0.277 µM)
[4]
  MIC: 0.2 µg/mL (≈ 0.553 µM)
Escherichia coli; 12.5 ppm in feed for 5 days
  Escherichia coli collected in Air sac: 4.20 Logarithmic number of collected cells per 1 g of tissue
  Escherichia coli collected in Lung: 5.26 Logarithmic number of collected cells per 1 g of tissue
  Escherichia coli collected in Trachea: 7.48 Logarithmic number of collected cells per 1 g of tissue
  Chickens developing disease in air sac (naked eye observation): 3
  No. of dead chickens: 2
Escherichia coli; 25 ppm in feed for 5 days
  Escherichia coli collected in Air sac: 3.90 Logarithmic number of collected cells per 1 g of tissue
  Escherichia coli collected in Lung: 1.86 Logarithmic number of collected cells per 1 g of tissue
  Escherichia coli collected in Trachea: 4.58 Logarithmic number of collected cells per 1 g of tissue
  Chickens developing disease in air sac (naked eye observation): 3
  No. of dead chickens: 1
Escherichia coli; 50 ppm in feed for 5 days
  Escherichia coli collected in Air sac: 0 Logarithmic number of collected cells per 1 g of tissue
  Escherichia coli collected in Lung: 0 Logarithmic number of collected cells per 1 g of tissue
  Escherichia coli collected in Trachea: 0 Logarithmic number of collected cells per 1 g of tissue
  Chickens developing disease in air sac (naked eye observation): 2
  No. of dead chickens: 1
Mycoplasma gallisepticum; 50 ppm in feed for 5 days
  Mycoplasma gallisepticum collected in Air sac: 3.70 Logarithmic number of collected cells per 1 g of tissue
  Mycoplasma gallisepticum collected in Infraorbital sinus: 1/5
  Mycoplasma gallisepticum collected in Lung: 4.78 Logarithmic number of collected cells per 1 g of tissue
  Mycoplasma gallisepticum collected in Trachea: 3.64 Logarithmic number of collected cells per 1 g of tissue
  Chickens developing disease in air sac (naked eye observation): 1
  No. of dead chickens: 0
Mycoplasma gallisepticum; 75 ppm in feed for 5 days
  Mycoplasma gallisepticum collected in Air sac: 0 Logarithmic number of collected cells per 1 g of tissue
  Mycoplasma gallisepticum collected in Infraorbital sinus: 0/5
  Mycoplasma gallisepticum collected in Lung: 4.00 Logarithmic number of collected cells per 1 g of tissue
  Mycoplasma gallisepticum collected in Trachea: 3.82 Logarithmic number of collected cells per 1 g of tissue
  Chickens developing disease in air sac (naked eye observation): 0
  No. of dead chickens: 0
Mycoplasma gallisepticum; 100 ppm in feed for 5 days
  Mycoplasma gallisepticum collected in Air sac: 0 Logarithmic number of collected cells per 1 g of tissue
  Mycoplasma gallisepticum collected in Infraorbital sinus: 0/5
  Mycoplasma gallisepticum collected in Lung: 0 Logarithmic number of collected cells per 1 g of tissue
  Mycoplasma gallisepticum collected in Trachea: 0 Logarithmic number of collected cells per 1 g of tissue
  Chickens developing disease in air sac (naked eye observation): 0
  No. of dead chickens: 0

## CCCN1CCN(c2c(F)cc3c(=O)c(C(=O)O)cn4c3c2OCC4C)CC1 (racemic) [Compound (3), 3(RS)-9-fluoro-2,3-dihydro-3-methyl-10-(4-n-propyl-1-piperazinyl)-7-oxo-7H-pyrido[1,2,3-de] [1,4]benzoxazine-6-carboxylic acid]
[5]
  MIC: 0.78 µg/mL (≈ 2 µM)
Escherichia coli 139
  MIC: 0.39 µg/mL (≈ 1 µM)
Escherichia coli 881
  MIC: 0.2 µg/mL (≈ 0.514 µM)
Escherichia coli S6W
  MIC: 0.39 µg/mL (≈ 1 µM)
[6]
  MIC: 0.1 µg/mL (≈ 0.257 µM)
[7]
  MIC: 0.78 µg/mL (≈ 2 µM)
[8]
  MIC: 0.39 µg/mL (≈ 1 µM)
[9]
  MIC: 0.78 µg/mL (≈ 2 µM)
[10]
  MIC: 0.025 µg/mL (≈ 0.0642 µM)
[11]
  MIC: 0.05 µg/mL (≈ 0.128 µM)
[12]
  MIC: 0.2 µg/mL (≈ 0.514 µM)
[13]
  MIC: 0.2 µg/mL (≈ 0.514 µM)
[14]
  MIC: 0.39 µg/mL (≈ 1 µM)
Mycoplasma gallisepticum; 50 ppm in feed for 5 days
  Mycoplasma gallisepticum collected in Air sac: 3.24 Logarithmic number of collected cells per 1 g of tissue
  Mycoplasma gallisepticum collected in Infraorbital sinus: 0/5
  Mycoplasma gallisepticum collected in Lung: 2.38 Logarithmic number of collected cells per 1 g of tissue
  Mycoplasma gallisepticum collected in Trachea: 0 Logarithmic number of collected cells per 1 g of tissue
  Chickens developing disease in air sac (naked eye observation): 0
  No. of dead chickens: 0
Mycoplasma gallisepticum; 75 ppm in feed for 5 days
  Mycoplasma gallisepticum collected in Air sac: 0 Logarithmic number of collected cells per 1 g of tissue
  Mycoplasma gallisepticum collected in Infraorbital sinus: 0/5
  Mycoplasma gallisepticum collected in Lung: 0 Logarithmic number of collected cells per 1 g of tissue
  Mycoplasma gallisepticum collected in Trachea: 0 Logarithmic number of collected cells per 1 g of tissue
  Chickens developing disease in air sac (naked eye observation): 0
  No. of dead chickens: 0
Mycoplasma gallisepticum; 100 ppm in feed for 5 days
  Mycoplasma gallisepticum collected in Air sac: 0 Logarithmic number of collected cells per 1 g of tissue
  Mycoplasma gallisepticum collected in Infraorbital sinus: 0/5
  Mycoplasma gallisepticum collected in Lung: 0 Logarithmic number of collected cells per 1 g of tissue
  Mycoplasma gallisepticum collected in Trachea: 0 Logarithmic number of collected cells per 1 g of tissue
  Chickens developing disease in air sac (naked eye observation): 0
  No. of dead chickens: 0
[15]; mice, intravenously injected, dose of 200 mg/kg
  fatality: No fatality
[15]; mouse, in vivo, iv
  LD50: > 200 mg/kg
